# Laboratory results published in patent publication US20050148495A1, “Methods and materials including for treating acne” (priority 2003, published 2005).
# Like-named read-outs stand apart in the source and are kept apart here. Non-standard residues stand in square brackets, D forms with d. Residues, ends and D or L forms follow the SMILES beside them. d1Nal = N[C@H](Cc1cccc2ccccc12)C(=O)O
# Key:
# in vivo = conditions: both, rat, plasma, po, 10 mg/kg, mean; for bioavailability: % F (bioavailability); for AUC: AUCall
# [1] = 0.1, 0.5, or 1% gel on 15% BSA; limit of quantification 1 ng/mL
# Procedure: XMP.629 acetate gel (0.1, 0.5, or 1% XMP.629 acetate per gram gel) was applied to the skin of mini-pigs. The dose of gel in each group was calculated as that amount which would cover 15% of the body surface area (BSA) at a rate of 2 mg of gel per cm2 of BSA. The application area was washed 24 hours following XMP.629 acetate gel application. Blood samples were collected at selected times up to 168 hours after dosing, plasma was extracted, and assayed for XMP.629 using an LC/MS/MS assay (limit of quantification=1 ng/mL).
# Hanford minipigs = assay: Minipig subchronic dermal toxicity test with toxicokinetics; assay type: in vivo; conditions: one 70 μg/kg/day female
# Procedure: XMP.629 was evaluated for potential toxicity when administered by a single daily dermal application to Hanford minipigs over the course of one month. The study group design and dosage levels tested were as follows:
# The test article or placebo control was administered once daily to the dorsal surface of each animal for 29 consecutive days. General health, mortality and moribundity checks were conducted twice daily. General health examinations were performed by a veterinarian once prior to in-life initiation and weekly during the study. The animals were examined daily for overt toxic signs (post-dose observations) between one and two hours following dosing. Detailed clinical observations and individual body weights were performed weekly, beginning on study day 0, and on the day of scheduled euthanasia. Dermal scoring was performed once per week and on the day of scheduled euthanasia.
# Hematology, coagulation and clinical chemistry parameters were evaluated once prior to in-life initiation (day -9) and near the conclusion of the dosing phase (day 26). Blood samples were also collected for anti-test article analyses on study day 26 and toxicokinetic (TK) analyses on study days 0 and 27. Ophthalmological examinations were performed once prior to in-life initiation and just prior to the end of the dosing phase. […]
# [2] = test system: Enterococcus faccium (VRE); conditions: Enterococcus faccium 700221 (VRE)
# Candida = assay type: cell-based
# Procedure: Control tubes containing only water or formulation buffer were prepared for each isolate. Initial growth controls were determined by removing 10 μL from the water control tube and diluting it by 100 fold. From this dilution, 10 μL was used for inoculation and for spreading over the surface onto Laked Blood Agar (LBA) (Anaerobe Systems, Morgan Hill, Calif.) plates. The tubes and plates were incubated in an anaerobic atmosphere at 37° C. for 48 h. […] MBC50 and 90 values represent where 50 and 90%, respectively, of the tested strain's MBC values are equal to or less than the indicated concentration.
# [3] = RMA 12689, Formulation Buffer Solvent, Study 2
# [4] = RMA 12689, Water Solvent, Study 1
# [5] = RMA 12689, Water Solvent, Study 2
# [6] = RMA 12689, composition of Example 5
# [7] = RMA 12732, Formulation Buffer Solvent, Study 1
# [8] = RMA 12732, Formulation Buffer Solvent, Study 2
# [9] = RMA 12732, Water Solvent, Study 1
# [10] = RMA 12732, Water Solvent, Study 2
# [11] = RMA 12908, Formulation Buffer Solvent, Study 1
# [12] = RMA 12908, Formulation Buffer Solvent, Study 2
# [13] = RMA 12908, Water Solvent, Study 1
# [14] = RMA 12908, Water Solvent, Study 2
# [15] = RMA 12908, composition of Example 5
# [16] = RMA 13399, Formulation Buffer Solvent, Study 1
# [17] = RMA 13399, Formulation Buffer Solvent, Study 2
# [18] = RMA 13399, Water Solvent, Study 1
# [19] = RMA 13399, Water Solvent, Study 2
# [20] = UD 738, composition of Example 5
# [21] = XMP.629 composition of Example 5 (Table 12), P. acnes strains of Table 7
# [22] = 10 mg/kg XMP.629 acetate oral gavage in 5% glucose
# [23] = 10 mg/kg XMP.629 acetate oral gavage in distilled water
# Procedure for P. acnes: An in vitro assessment of antibiotic activity in XMP.629 and various known antibiotics against a representative panel of bacterial strains associated with acne was conducted. A broth dilution methodology was employed using guidelines established by National Committee for Clinical Laboratory Standards (NCCLS) for anaerobic organisms to establish an antibacterial profile for XMP.629. Assays to determine the minimal bactericidal concentrations (MBC) and minimal inhibitory concentration (MIC) were conducted for XMP.629 and other known antibiotics.
# Inoculum from a representative panel of bacterial strains associated with acne, such as P. acnes, P. avidum, P. granulosum, and Staphylococcus epidermis was prepared by suspending approximately 5-10 isolated bacterial colonies in pre-reduced MicroScan® Inoculum Water (Dade Behring, Deerfield, Ill.), and growing the bacterial suspension to log phase (approximately 48 hrs). An inoculum of between 1-5×10^6/mL was achieved by adding 100 μL of the suspension to 25 mL Brain Heart Infusion Broth (BHI) (Anaerobe Systems, Morgan Hill, Calif.).
# A stock solution of XMP.629 dissolved in water at a concentration of 4.0 mg/mL was prepared. Dilute solutions of XMP.629 at concentrations ranging from about 1.25 to about 160 μg/mL were made in either water or formulation buffer (130 mM sodium chloride, 0.2% P103 (poloxamer 333), and 0.10% EDTA, pH 7.3).
# Control tubes containing only water or formulation buffer were prepared for each isolate. Initial growth controls were determined by removing 10 μL from the water control tube and diluting it by 100 fold. From this dilution, 10 μL was used for inoculation and for spreading over the surface onto Laked Blood Agar (LBA) (Anaerobe Systems, Morgan Hill, Calif.) plates. The tubes and plates were incubated in an anaerobic atmosphere at 37° C. for 48 h.
compound,measurement,setting,value
"CC(C)C[C@@H](NC(=O)[C@H](N)CCCCN)C(=O)N[C@H](Cc1ccccc1)C(=O)N[C@H](CCCNC(=N)N)C(=O)N[C@H](Cc1cccc2ccccc12)C(=O)N[C@H](CCC(N)=O)C(=O)N[C@H](C)C(=O)N[C@H](CCCCN)C(=O)N[C@H](Cc1cccc2ccccc12)C(N)=O [XMP.629, NH2-lys-leu-phe-arg-(3-(1-naphthyl)-ala)-gln-ala-lys-(3-(1-naphthyl)-ala)-CONH2] (H-[dK][dL][dF][dR][d1Nal][dQ][dA][dK][d1Nal]-NH2)",MBC,P. acnes; [3],2 µg/mL
same,MIC,P. acnes; [3],1 µg/mL
same,MBC,P. acnes; [4],4 µg/mL
same,MIC,P. acnes; [4],2 µg/mL
same,MBC,P. acnes; [5],2 µg/mL
same,MIC,P. acnes; [5],2 µg/mL
same,MBC,P. acnes; [6],2 µg/mL
same,MIC,P. acnes; [6],1 µg/mL
same,MBC,P. acnes; [7],2 µg/mL
same,MIC,P. acnes; [7],2 µg/mL
same,MBC,P. acnes; [8],2 µg/mL
same,MIC,P. acnes; [8],2 µg/mL
same,MBC,P. acnes; [9],4 µg/mL
same,MIC,P. acnes; [9],4 µg/mL
same,MBC,P. acnes; [10],2 µg/mL
same,MIC,P. acnes; [10],4 µg/mL
same,MBC,P. acnes; [11],2 µg/mL
same,MIC,P. acnes; [11],2 µg/mL
same,MBC,P. acnes; [12],2 µg/mL
same,MIC,P. acnes; [12],2 µg/mL
same,MBC,P. acnes; [13],4 µg/mL
same,MIC,P. acnes; [13],4 µg/mL
same,MBC,P. acnes; [14],4 µg/mL
same,MIC,P. acnes; [14],2 µg/mL
same,MBC,P. acnes; [15],2 µg/mL
same,MIC,P. acnes; [15],1 µg/mL
same,MBC,P. acnes; [16],1 µg/mL
same,MIC,P. acnes; [16],0.5 µg/mL
same,MBC,P. acnes; [17],2 µg/mL
same,MIC,P. acnes; [17],2 µg/mL
same,MBC,P. acnes; [18],4 µg/mL
same,MIC,P. acnes; [18],2 µg/mL
same,MBC,P. acnes; [19],4 µg/mL
same,MIC,P. acnes; [19],4 µg/mL
same,MBC,P. acnes; [20],2 µg/mL
same,MIC,P. acnes; [20],0.5 µg/mL
same,MBC50,P. acnes; [21],2 µg/mL
same,MBC90,P. acnes; [21],2 µg/mL
same,bioavailability,in vivo; [22],0.0044%
same,bioavailability,in vivo; [23],0.0015%
same,AUC,in vivo; [22],1.67 ng·h/mL
same,AUC,in vivo; [23],0.55 ng·h/mL
same,Cmax,in vivo; [22],4.6 ng/mL
same,Cmax,in vivo; [23],1.5 ng/mL
same,Tmax,in vivo; [22],11.4 min
same,Tmax,in vivo; [23],8.4 min
same,plasma concentrations after topical administration,[1],no measurable plasma concentrations
same,Minimum Inhibitory Concentrations,Streptococcus pneumoniae; Streptococcus pneumoniae 6303,8.00 µg/mL
same,Minimum Inhibitory Concentrations,Streptococcus pneumoniae; Streptococcus pneumoniae 10031,8.00 µg/mL
same,Minimum Inhibitory Concentrations,Streptococcus pneumoniae; Streptococcus pneumoniae 35088,2.00 µg/mL
same,Dermal observations,Hanford minipigs,single incidence of grade 2 (well defined) erythema
same,Minimum Inhibitory Concentrations,[2],2.00 µg/mL
same,"MIC90, XMP.629 data reported as MBC values",Candida,1 µg/mL
same,"MIC90, XMP.629 data reported as MBC values",Candida; in FB (formulation buffer),0.5 µg/mL
